From ChEMBL document CHEMBL5032520, “Low-Valent Calix[4]arene Glycoconjugates Based on Hydroxamic Acid Bearing Linkers as Potent Inhibitors in a Model of Ebola Virus Cis-Infection and HCMV-gB-Recombinant Glycoprotein Interaction with MDDC Cells by Blocking DC-SIGN” (J Med Chem, 2021)

Experiments:
Human betaherpesvirus 5 [1] = test: Potency index, ratio of Mannan IC50 to test compound IC50 for antiviral activity against HCMV infected in U-937 cells expressed in DC-SIGN using flow cytometry; assay type: functional
Human betaherpesvirus 5 [2] = test: Antiviral activity against HCMV infected in U-937 cells expressed in DC-SIGN using flow cytometry; assay type: functional, organism-based; details: Human betaherpesvirus 5, U-937

Structure (SMILES)	Ratio IC50 (Human betaherpesvirus 5 [1])	IC50 (Human betaherpesvirus 5 [2])
C[C@@H]1O[C@@H](OCc2cn(CCCCCC(=O)N(O)Cc3cn(CCCOc4c5cc(C(C)(C)C)cc4Cc4cc(C(C)(C)C)cc(c4OCCCn4cc(CN(O)C(=O)CCCCCn6cc(CO[C@@H]7O[C@@H](C)[C@@H](O)[C@@H](O)[C@@H]7O)nn6)nn4)Cc4cc(C(C)(C)C)cc(c4OCCCn4cc(CN(O)C(=O)CCCCCn6cc(CO[C@@H]7O[C@@H](C)[C@@H](O)[C@@H](O)[C@@H]7O)nn6)nn4)Cc4cc(C(C)(C)C)cc(c4OCCCn4cc(CN(O)C(=O)CCCCCn6cc(CO[C@@H]7O[C@@H](C)[C@@H](O)[C@@H](O)[C@@H]7O)nn6)nn4)C5)nn3)nn2)[C@@H](O)[C@H](O)[C@@H]1O	31	0.5 µg/mL
CC(C)(C)c1cc2c(OCCCn3cc(CN(O)C(=O)CCCCCn4cc(CO[C@H]5O[C@H](CO)[C@@H](O)[C@H](O)[C@@H]5O)nn4)nn3)c(c1)Cc1cc(C(C)(C)C)cc(c1OCCCn1cc(CN(O)C(=O)CCCCCn3cc(CO[C@H]4O[C@H](CO)[C@@H](O)[C@H](O)[C@@H]4O)nn3)nn1)Cc1cc(C(C)(C)C)cc(c1OCCCn1cc(CN(O)C(=O)CCCCCn3cc(CO[C@H]4O[C@H](CO)[C@@H](O)[C@H](O)[C@@H]4O)nn3)nn1)Cc1cc(C(C)(C)C)cc(c1OCCCn1cc(CN(O)C(=O)CCCCCn3cc(CO[C@H]4O[C@H](CO)[C@@H](O)[C@H](O)[C@@H]4O)nn3)nn1)C2	34	0.45 µg/mL
COC(=O)CNC(=O)CN(Cc1cn(CCCOc2c3cc(C(C)(C)C)cc2Sc2cc(C(C)(C)C)cc(c2OCCCn2cc(CN(CC(=O)NCC(=O)OC)C(=O)CCCCCn4cc(CO[C@@H]5O[C@@H](C)[C@@H](O)[C@@H](O)[C@@H]5O)nn4)nn2)Sc2cc(C(C)(C)C)cc(c2OCCCn2cc(CN(CC(=O)NCC(=O)OC)C(=O)CCCCCn4cc(CO[C@@H]5O[C@@H](C)[C@@H](O)[C@@H](O)[C@@H]5O)nn4)nn2)Sc2cc(C(C)(C)C)cc(c2OCCCn2cc(CN(CC(=O)NCC(=O)OC)C(=O)CCCCCn4cc(CO[C@@H]5O[C@@H](C)[C@@H](O)[C@@H](O)[C@@H]5O)nn4)nn2)S3)nn1)C(=O)CCCCCn1cc(CO[C@@H]2O[C@@H](C)[C@@H](O)[C@@H](O)[C@@H]2O)nn1	4.91	3.15 µg/mL
COC(=O)CNC(=O)CN(Cc1cn(CCCOc2c3cc(C(C)(C)C)cc2Cc2cc(C(C)(C)C)cc(c2OCCCn2cc(CN(CC(=O)NCC(=O)OC)C(=O)CCCCCn4cc(CO[C@@H]5O[C@@H](C)[C@@H](O)[C@@H](O)[C@@H]5O)nn4)nn2)Cc2cc(C(C)(C)C)cc(c2OCCCn2cc(CN(CC(=O)NCC(=O)OC)C(=O)CCCCCn4cc(CO[C@@H]5O[C@@H](C)[C@@H](O)[C@@H](O)[C@@H]5O)nn4)nn2)Cc2cc(C(C)(C)C)cc(c2OCCCn2cc(CN(CC(=O)NCC(=O)OC)C(=O)CCCCCn4cc(CO[C@@H]5O[C@@H](C)[C@@H](O)[C@@H](O)[C@@H]5O)nn4)nn2)C3)nn1)C(=O)CCCCCn1cc(CO[C@@H]2O[C@@H](C)[C@@H](O)[C@@H](O)[C@@H]2O)nn1	6.45	2.4 µg/mL
OC[C@H]1O[C@@H](O[C@H]2[C@H](O)[C@@H](O)[C@H](O[C@H]3[C@H](O)[C@H](O)[C@H](O[C@@H]4[C@H](O)[C@H](O)[C@H](O)O[C@@H]4CO)O[C@@H]3CO)O[C@@H]2CO)[C@@H](O)[C@@H](O)[C@@H]1O		15.5 nM
